Assay: Thermodynamic aqueous solubility of crystalline Forms I and II of Compound 1 (HPLC)
Format: physicochemical
Procedure: Substance contents in test solutions were measured using HPLC Prominence/PDA detector (Shimadzu Corporation). The analytical conditions and calculation formula were as follows: […]
The thermodynamic solubility of Forms I and II was determined at pH 1.2 and pH 6.8 and in 20 mM GCDC, pH 6.8 at 37° C. with an equilibrium period for 2, 6 and 24 hours.

[1] = 20 mM GCDC (sodium glycochenodeoxycholate), pH 6.8, 37° C., 2 hrs equilibrium, average n=3
[2] = 20 mM GCDC (sodium glycochenodeoxycholate), pH 6.8, 37° C., 6 hrs equilibrium, average n=3
[3] = 20 mM GCDC (sodium glycochenodeoxycholate), pH 6.8, 37° C., 24 hrs equilibrium, average n=3
[4] = pH 6.8, 37° C., 2 hrs equilibrium, average n=3
[5] = pH 6.8, 37° C., 6 hrs equilibrium, average n=3
[6] = pH 6.8, 37° C., 24 hrs equilibrium, average n=3

Row | SMILES | Aqueous Solubility [1] [µg/mL] | Aqueous Solubility [2] [µg/mL] | Aqueous Solubility [3] [µg/mL] | Solubility compared between Form I and Form II (in words) (20 mM GCDC, pH 6.8, 37° C.) | Aqueous Solubility (pH 1.2, 37° C., 2 hrs equilibrium, average n=3) [µg/mL] | Aqueous Solubility (pH 1.2, 37° C., 6 hrs equilibrium, average n=3) [µg/mL] | Aqueous Solubility (pH 1.2, 37° C., 24 hrs equilibrium, average n=3) [µg/mL] | Solubility compared between Form I and Form II (in words) (pH 6.8, 37° C.) | Aqueous Solubility [4] [µg/mL] | Aqueous Solubility [5] [µg/mL] | Aqueous Solubility [6] [µg/mL] | Aqueous solubility compared between Form II and Form I (in words) (37° C., overall comparison of Tables 3 and 4) | solubility at 2 h (aqueous solution, pH 1.2, 37 °C, pH 1.2, simulated gastric fluid, thermodynamic from solid, 2 hrs equilibrium, average n=3) [µg/mL] | solubility at 6 h (aqueous solution, pH 1.2, 37 °C, pH 1.2, simulated gastric fluid, thermodynamic from solid, 6 hrs equilibrium, average n=3) [µg/mL] | solubility at 24 h (aqueous solution, pH 1.2, 37 °C, pH 1.2, simulated gastric fluid, thermodynamic from solid, 24 hrs equilibrium, average n=3) [µg/mL] | Solubility compared between Form I and Form II (in words) (pH 6.8, 37° C., listed as Form II of Compound 1)
1 | CONC(=O)Nc1ccc(-c2sc3c(c2CN(C)C)c(=O)n(-c2ccc(OC)nn2)c(=O)n3Cc2c(F)cccc2F)cc1 [Form I, N-(4-(1-(2,6-difluorobenzyl)-5-((dimethylamino)methyl)-3-(6-methoxy-3-pyridazinyl)-2,4-dioxo-1,2,3,4-tetrahydrothieno[2,3-d]pyrimidin-6-yl)phenyl)-N′-methoxyurea] | 960 | 980 | 970 | lower solubility than Form II | >10000 | >10000 | >10000 | lower solubility than Form II | 80 | 80 | 70 |  |  |  |  | 
2 | CONC(=O)Nc1ccc(-c2sc3c(c2CN(C)C)c(=O)n(-c2ccc(OC)nn2)c(=O)n3Cc2c(F)cccc2F)cc1 [Form II, N-(4-(1-(2,6-difluorobenzyl)-5-((dimethylamino)methyl)-3-(6-methoxy-3-pyridazinyl)-2,4-dioxo-1,2,3,4-tetrahydrothieno[2,3-d]pyrimidin-6-yl)phenyl)-N′-methoxyurea] | 2750 | 3300 | 4120 |  |  |  |  |  | 520 | 510 | 520 | more soluble than Form I of Compound 1 | > 10000 | > 10000 | > 10000 | higher aqueous solubility

— patent US12338249B2, “Crystalline forms of N-(4-(1-(2,6-difluorobenzyl)-5-((dimethylamino)methyl)-3-(6-methoxy-3-pyridazinyl)-2,4-dioxo-1,2,3,4-tetrahydrothieno[2,3-d]pyrimidin-6-yl)phenyl)-N′-methoxyurea” (Sumitomo Pharma Switzerland GmbH, priority 2019, dated 2025)
